Key:
Assay type in all cases: physicochemical
[1] = Anti-photobleaching study, five circles of heating-cooling; conditions: 100 μM, 808 nm 0.8 W/cm^2
Description: (§1) For the photostability study, PBS solutions (pH 7.4) of TPA-T-TQ ONPs and ICG were irradiated under 808-nm laser (0.8 W/cm^2), and the absorption spectra were measured at different time points. For the anti-photobleaching study, the temperatures of the sample solutions were recorded during five circles of heating and cooling. In one heating-cooling circle, the NIR laser first irradiated the samples for 5 min to reach a steady state, then the laser was removed and the samples were naturally cooled down to ambient temperature in 6 min.
(§2) Then, the anti-photobleaching properties of TPA-T-TQ ONPs and ICG were evaluated by alternative heating and cooling processes (the NIR laser first irradiated the samples for 5 min to heat them up, then the laser was removed, and the samples were naturally cooled down to ambient temperature in 6 min).

RONS-stability study = conditions: PBS, ICG read at 780 nm
Description: For the RONS-stability study, two kinds of RONS were used, i.e., ONOO^− and .OH, which were prepared according to the literature. The absorption and photoluminescence spectra were recorded before and after addition of 0.4 mM of RONS. The stabilities of the contrast agents in terms of thermal and photothermal stabilities as well as photobleaching and RONS resistances are crucial for PAI/PTT applications in vivo because incorrect or misleading signals, weakened therapeutic efficacy, and harmful side effects can result if the structure of the agent is destroyed, especially in living systems. Thermogravimetric analysis (TGA) was first carried out to measure the thermal stability of TPA-T-TQ. The decomposition temperature for 5% weight loss of TPA-T-TQ was above 400° C. […] Then the photostability of TPA-T-TQ ONPs was evaluated along with ICG under continuous 808 nm laser irradiation (0.8 W/cm^2) by recording the apparent colors and absorption spectra after laser irradiation for different times. […]
Another important issue related to in vivo applications is the physiological stability against highly reactive molecules such as RONS. […] Therefore, the stability of TPA-T-TQ ONPs and ICG in the presence of two kinds of RONS, peroxynitrite (ONOO^−) and hydroxyl radical (.OH), were measured under physiological conditions. […]

[2] = Photostability under continuous 808 nm laser irradiation; conditions: PBS pH 7.4, 808 nm laser 0.8 W/cm^2, 15 min
Description: as §1
(§3) For the RONS-stability study, two kinds of RONS were used, i.e., ONOO^− and .OH, which were prepared according to the literature. The absorption and photoluminescence spectra were recorded before and after addition of 0.4 mM of RONS. […] Then the photostability of TPA-T-TQ ONPs was evaluated along with ICG under continuous 808 nm laser irradiation (0.8 W/cm^2) by recording the apparent colors and absorption spectra after laser irradiation for different times. […]
as §2

[3] = Photothermal performance in PBS under 808 nm laser; conditions: PBS pH 7.4, 100 μM, 808 nm laser 0.8 W/cm^2, 5 min
Description: The PBS solution (pH 7.4) of TPA-T-TQ ONPs and ICG in different concentrations were continuously exposed to NIR laser of 808 nm with a power intensity of 0.8 W/cm^2 for 5 min. The temperature was measured every 20 s and stopped until the temperature nearly reached a plateau. The corresponding IR thermal images were also recorded. To evaluate the photothermal conversion property, we quantitatively measured the temperature change of TPA-T-TQ ONP solution at different concentrations as a function of 808 nm laser (0.8 W/cm^2) irradiation time. As depicted in FIG. 9B, temperature increases very fast initially, and reaches a plateau after 3 min laser irradiation. It is noted that the eventual temperature at the plateau depends on the ONP concentration. The temperature increase of ONPs and ICG solutions upon exposure to 808 nm laser irradiation was compared. […] The difference in temperature elevation of the two samples at various irradiation times can be intuitively visualized from the infrared (IR) thermal images (FIG. 9A).

[4] = Thermogravimetric analysis (TGA), thermal stability; conditions: heating rate 10° C./min, nitrogen atmosphere
Description: ^1H (400 MHz) and ^13C (100 MHz) nuclear magnetic resonance (NMR) spectra were recorded on a Bruker AV 400 spectrometer by using CDCl3 or DMSO-d6 as the solvent. High-resolution mass spectra (HRMS) were measured on a GCT premier CAB048 mass spectrometer in MALDI-TOF mode. Thermogravimetric analysis (TGA) measurement was conducted on a TA TGA Q5000 with a heating rate of 10° C./min under nitrogen atmosphere. The UV-vis-NIR absorption spectra were performed on a PerkinElmer Lambda 365 spectrophotometer. The photoluminescence (PL) spectra were conducted using a Horiba Fluorolog-3 spectrofluorometer. Dynamic light scattering (DLS) was performed on a 90 plus particle size analyzer. Transmission electron microscopy (TEM) images were obtained on a JEM-2010F transmission electron microscope with an accelerating voltage of 200 kV.
as §3

[5] = after two circles of heating-cooling

SMILES: CC1(C)C(/C=C/C=C/C=C/C=C2\N(CCCCS(=O)(=O)O)c3ccc4ccccc4c3C2(C)C)=[N+](CCCCS(=O)(=O)[O-])c2ccc3ccccc3c21 [ICG, indocyanine green]
- temperature elevation relative to the original value [1, 5]: about 20%
- temperature elevation ΔT after two circles [1, 5]: ~10 °C
- temperature elevation ΔT, original value ([1]; first heating): ~44 °C
- maximal absorption intensity relative to the original value after .OH (RONS-stability study; 400 μM .OH for 1 min): ~4%
- maximal absorption intensity relative to the original value after ONOO^− (RONS-stability study; 400 μM ONOO^− for 1 min): about 60%
- colors and absorption spectra / maximal absorption intensity after NIR light irradiation [2]: nearly drops to zero
- temperature increase ΔT in 5 min [3]: ~43 °C

SMILES: Cc1ccc(N(c2ccc(-c3ccc(-c4c5nsnc5c(-c5ccc(-c6ccc(N(c7ccc(C)cc7)c7ccc(C(C)(C)C)cc7)cc6)s5)c5nc(-c6ccccc6)c(-c6ccccc6)nc45)s3)cc2)c2ccc(C(C)(C)C)cc2)cc1 [TPA-T-TQ, 4,4′-((6,7-Diphenyl-[1,2,5]thiadiazolo[3,4-g]quinoxaline-4,9-diyl)bis(thiophene-5,2-diyl))bis(N-(4-(tert-butyl)phenyl)-N-(p-tolyl)aniline)]
- decomposition temperature for 5% weight loss [4]: above 400 °C

Reference: patent publication US11389446B2, “Theranostic agents” (THE HONG KONG UNIVERSITY OF SCIENCE AND TECHNOLOGY, priority 2017, dated 2022)
